This is an account of results in US8604042B2, “Bi-aryl meta-pyrimidine inhibitors of kinases” (TargeGen, Inc., priority 2005, dated 2013).

Where a name gives a salt, the structure may show the parent alone.

The target of the experiment is T1, recombinant JAK2 (Homo sapiens, UniProt O60674).
T1 construct: purchased Upstate Cell Signaling Solutions
T1 sequence (O60674 808-1132 limits assumed): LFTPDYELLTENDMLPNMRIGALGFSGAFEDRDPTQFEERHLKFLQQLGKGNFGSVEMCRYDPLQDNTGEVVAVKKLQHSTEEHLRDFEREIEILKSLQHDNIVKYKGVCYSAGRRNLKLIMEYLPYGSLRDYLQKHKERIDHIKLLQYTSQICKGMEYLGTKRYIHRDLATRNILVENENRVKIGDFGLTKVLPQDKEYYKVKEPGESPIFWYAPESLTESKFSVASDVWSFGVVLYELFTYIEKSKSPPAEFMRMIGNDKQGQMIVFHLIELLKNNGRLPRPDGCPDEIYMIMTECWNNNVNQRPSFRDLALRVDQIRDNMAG
The experiment in a line: IC50 value determinations for Jak2 kinase, luminescence-based kinase assay (Kinase-Glo). To be noted: Table 1. Format: biochemical. In general terms: Kinase-Glo measures the ATP left after a reaction by luminescence.
Method: The IC50 values for compounds were determined using a luminescence-based kinase assay with recombinant JAK2 obtained from Upstate Cell Signaling Solutions. In white, flat bottom, 96-well plates (Nunc) parallel assays were run at room temperature at a final volume of 50 μL.
Two control reactions were also ran: one reaction containing no compound and the second containing neither inhibitor nor peptide substrate. IC50 values were derived from experimental data using the non-linear curve fitting capabilities of Prism (Version 4; GraphPad Software).
A word on the IC50: it is the point on the concentration scale where inhibition reaches its midpoint. On to `Cc1cnc(Nc2cccc(N3CCN(CCO)CC3)c2)nc1Nc1cccc(S(=O)(=O)NC(C)(C)C)c1` [N-tert-Butyl-3-(2-{3-[4-(2-hydroxy-ethyl)-piperazin-1-yl]-phenylamino}-[5-methyl-pyrimidin-4-ylamino]-benzenesulfonamide Hydrochloride], for which the IC50 is 40.5 nM.
The value for `Cc1cnc(Nc2ccc(N3CCN(CCO)CC3)cc2)nc1Nc1cccc(S(=O)(=O)NC(C)(C)C)c1` [N-tert-Butyl-3-(2-{4-[4-(2-hydroxy-ethyl)-piperazin-1-yl]-phenylamino)-[5-methyl-pyrimidin-4-ylamino]-benzenesulfonamide Hydrochloride] was 7.09 nM; that for `Cc1cnc(Nc2cccc(CN3CCOCC3)c2)nc1Nc1cccc(S(=O)(=O)NC(C)(C)C)c1` [N-tert-Butyl-3-(5-methyl-2-(3-morpholin-4-ylmethyl-phenylamino)-pyrimidin-4-ylamino]-benzenesulfonamide] was 7.06 nM.
The value for `Cc1cnc(Nc2ccc(OC3CCNCC3)cc2)nc1Nc1cccc(S(=O)(=O)NC(C)(C)C)c1` [N-tert-Butyl-3-(5-methyl-2-[4-(piperidin-4-yloxy)-phenylamino]-pyrimidin-4-ylamino}-benzenesulfonamide] was 7.3 nM; that for `Cc1cnc(Nc2ccc(-n3ccnc3)cc2)nc1Nc1cccc(S(=O)(=O)NC(C)(C)C)c1` [N-tert-Butyl-3-[2-(4-imidazol-1-yl-phenylamino)-5-methyl-pyrimidin-4-ylamino]-benzenesulfonamide] was 12.3 nM.
Next, `Cc1cnc(Nc2ccc(Cn3ccnc3)cc2)nc1Nc1cccc(S(=O)(=O)NC(C)(C)C)c1` [N-tert-Butyl-3-[2-(4-imidazol-1-ylmethyl-phenylamino)-5-methyl-pyrimidin-4-ylamino]-benzenesulfonamide]: 8.42 nM; `Cc1cnc(Nc2cccc(N3CCNCC3)c2)nc1Nc1cccc(S(=O)(=O)NC(C)(C)C)c1` [N-tert-Butyl-3-[5-methyl-2-(3-piperazin-1-yl-phenylamino)-pyrimidin-4-ylamino]-benzenesulfonamide Hydrochloride]: 18 nM.
Consider `Cc1cnc(Nc2ccc(-n3cncn3)cc2)nc1Nc1cccc(S(=O)(=O)NC(C)(C)C)c1` [N-tert-Butyl-3-[5-methyl-2-(4-[1,2,4]triazol-1-yl-phenylamino)-pyrimidin-4-ylamino]-benzenesulfonamide], for which the IC50 came to 41.4 nM.
The value for `Cc1cnc(Nc2ccc(Cn3cncn3)cc2)nc1Nc1cccc(S(=O)(=O)NC(C)(C)C)c1` [N-tert-Butyl-3-[5-methyl-2-(4-[1,2,4]triazol-1-ylmethyl-phenylamino)-pyrimidin-4-ylamino]-benzenesulfonamide] was 35.4 nM; that for `Cc1cnc(Nc2ccc(N3CCOCC3)cc2)nc1Nc1cccc(S(=O)(=O)NC(C)(C)C)c1` [N-tert-Butyl-3-[5-methyl-2-(4-morpholin-4-yl-phenylamino)-pyrimidin-4-ylamino]-benzenesulfonamide] was 12.1 nM.
In the case of `Cc1cnc(Nc2ccc(CN3CCOCC3)cc2)nc1Nc1cccc(S(=O)(=O)NC(C)(C)C)c1` [N-tert-Butyl-3-[5-methyl-2-(4-morpholin-4-ylmethyl-phenylamino)-pyrimidin-4-ylamino]-benzenesulfonamide], the IC50 stood at 12.5 nM.
Regarding `Cc1cnc(Nc2ccc(N3CCNCC3)cc2)nc1Nc1cccc(S(=O)(=O)NC(C)(C)C)c1` [N-tert-Butyl-3-[5-methyl-2-(4-piperazin-1-yl-phenylamino)-pyrimidin-4-ylamino]-benzenesulfonamide Hydrochloride], the IC50 is 7.59 nM.
As for `Cc1cnc(Nc2ccc(-n3cccn3)cc2)nc1Nc1cccc(S(=O)(=O)NC(C)(C)C)c1` [N-tert-Butyl-3-[5-methyl-2-(4-pyrazol-1-yl-phenylamino)-pyrimidin-4-ylamino]-benzenesulfonamide], the IC50 was found to be 19 nM.
The value for `Cc1cnc(Nc2ccc(Cn3cccn3)cc2)nc1Nc1cccc(S(=O)(=O)NC(C)(C)C)c1` [N-tert-Butyl-3-[5-methyl-2-(4-pyrazol-1-ylmethyl-phenylamino)-pyrimidin-4-ylamino]-benzenesulfonamide] was 18.6 nM.
The value for `Cc1cnc(Nc2ccc(Cc3ccncc3)cc2)nc1Nc1cccc(S(=O)(=O)NC(C)(C)C)c1` [N-tert-Butyl-3-[5-methyl-2-(4-pyridin-4-ylmethyl-phenylamino)-pyrimidin-4-ylamino]-benzenesulfonamide] was 80.7 nM.
Next, `Cc1cnc(Nc2ccc(N3CCNCC3)nc2)nc1Nc1cccc(S(=O)(=O)NC(C)(C)C)c1` [N-tert-Butyl-3-[5-methyl-2-(6-piperazin-1-yl-pyridin-3-ylamino)-pyrimidin-4-ylamino]-benzenesulfonamide]: 10 nM.
On to `Cc1cnc(Nc2ccc(OCCO)cc2)nc1Nc1cccc(S(=O)(=O)NC(C)(C)C)c1` [N-tert-Butyl-3-{2-[4-(2-hydroxy-ethoxy)-phenylamino]-5-methyl-pyrimidin-4-ylamino)-benzenesulfonamide], for which the IC50 was found to be 20.3 nM.
The value for `Cc1cnc(Nc2cccc(-c3nnn[nH]3)c2)nc1Nc1cccc(S(=O)(=O)NC(C)(C)C)c1` [N-tert-Butyl-3-{5-methyl-2-[3-(1H-tetrazol-5-yl)-phenylamino]-pyrimidin-4-ylamino}-benzenesulfonamide] was 55.9 nM; that for `Cc1cnc(Nc2cccc(S(=O)(=O)N3CCCCC3)c2)nc1Nc1cccc(S(=O)(=O)NC(C)(C)C)c1` [N-tert-Butyl-3-{5-methyl-2-[3-(piperidine-1-sulfonyl)-phenylamino]-pyrimidin-4-ylamino}-benzenesulfonamide] was 316 nM.
Next, `Cc1cnc(Nc2ccc(C(C)N3CCOCC3)cc2)nc1Nc1cccc(S(=O)(=O)NC(C)(C)C)c1` (stereo not shown) [N-tert-Butyl-3-{5-methyl-2-[4-(1-morpholin-4-yl-ethyl)-phenylamino]-pyrimidin-4-ylamino}-benzenesulfonamide]: 29.7 nM; `Cc1cnc(Nc2ccc(-c3nnn[nH]3)cc2)nc1Nc1cccc(S(=O)(=O)NC(C)(C)C)c1` [N-tert-Butyl-3-{5-methyl-2-[4-(1H-tetrazol-5-yl)-phenylamino]-pyrimidin-4-ylamino}-benzenesulfonamide]: 96.7 nM.
Take `Cc1cnc(Nc2ccc(-n3ccnc3C)cc2)nc1Nc1cccc(S(=O)(=O)NC(C)(C)C)c1` [N-tert-Butyl-3-{5-methyl-2-[4-(2-methyl-imidazol-1-yl)-phenylamino]-pyrimidin-4-ylamino}-benzenesulfonamide]: the IC50 came to 34.3 nM.
`Cc1cnc(Nc2ccc(Cn3ccnc3C)cc2)nc1Nc1cccc(S(=O)(=O)NC(C)(C)C)c1` [N-tert-Butyl-3-{5-methyl-2-[4-(2-methyl-imidazol-1-ylmethyl)-phenylamino]-pyrimidin-4-ylamino}-benzenesulfonamide]: the IC50 came to 21.9 nM.
The value for `Cc1cn(-c2ccc(Nc3ncc(C)c(Nc4cccc(S(=O)(=O)NC(C)(C)C)c4)n3)cc2)cn1` [N-tert-Butyl-3-{5-methyl-2-[4-(4-methyl-imidazol-1-yl)-phenylamino]-pyrimidin-4-ylamino}-benzenesulfonamide] was 41.7 nM; that for `Cc1cnc(Nc2ccc(N3CCN(C)CC3)cc2)nc1Nc1cccc(C(=O)NC(C)(C)C)c1` [N-tert-Butyl-3-{5-methyl-2-[4-(4-methyl-piperazin-1-yl)-phenylamino]-pyrimidin-4-ylamino}-benzamide] was 890 nM.
Next, `Cc1cnc(Nc2ccc(C[N+]3([O-])CCOCC3)cc2)nc1Nc1cccc(S(=O)(=O)NC(C)(C)C)c1` [N-tert-Butyl-3-{5-methyl-2-[4-(4-oxy-morpholin-4-ylmethyl)-phenylamino]-pyrimidin-4-ylamino}-benzenesulfonamide]: 48.6 nM; `Cc1cnc(Nc2ccc(C(=O)N3CCOCC3)cc2)nc1Nc1cccc(S(=O)(=O)NC(C)(C)C)c1` [N-tert-Butyl-3-{5-methyl-2-[4-(morpholine-4-carbonyl)-phenylamino]-pyrimidin-4-ylamino}-benzenesulfonamide]: 32.9 nM.
Next, `Cc1cnc(Nc2ccc(C(=O)N3CCNCC3)cc2)nc1Nc1cccc(S(=O)(=O)NC(C)(C)C)c1` [N-tert-Butyl-3-{5-methyl-2-[4-(piperazine-1-carbonyl)-phenylamino]-pyrimidin-4-ylamino}-benzenesulfonamide]: 69 nM; `Cc1cnc(Nc2ccc(C(=O)N3CCCC3)cc2)nc1Nc1cccc(S(=O)(=O)NC(C)(C)C)c1` [N-tert-Butyl-3-{5-methyl-2-[4-(pyrrolidine-1-carbonyl)-phenylamino]-pyrimidin-4-ylamino}-benzenesulfonamide]: 33.5 nM.
For the compound `Cc1ccc(Nc2nc(Nc3ccc(-n4ccnc4)cc3)ncc2C)cc1S(=O)(=O)NC(C)(C)C` [N-tert-Butyl-5-[2-(4-imidazol-1-yl-phenylamino)-5-methyl-pyrimidin-4-ylamino]-2-methyl-benzenesulfonamide], the IC50 turned out to be 88.2 nM.
Next, `Cc1cnc(Nc2ccc(CN3CCNCC3)cc2)nc1Nc1cccc(S(=O)(=O)NC(C)(C)C)c1` [N-tert-butyl-3-[(5-methyl-2-{[4-(piperazin-1-ylmethyl)phenyl]amino}pyrimidin-4-yl)amino]benzenesulfonamide]: 4.6 nM; `Cc1cnc(Nc2ccc(N3CCNCC3)c(C(F)(F)F)c2)nc1Nc1cccc(S(=O)(=O)NC(C)(C)C)c1` [N-tert-butyl-3-[(5-methyl-2-{[4-piperazin-1-yl-3-(trifluoromethyl)phenyl]amino}pyrimidin-4-yl)amino]benzenesulfonamide]: 22.5 nM.
Next, `Cc1cnc(Nc2cccc(S(=O)(=O)N3CCN(C)CC3)c2)nc1Nc1cccc(S(=O)(=O)NC(C)(C)C)c1` [N-tert-butyl-3-{[5-methyl-2-({3-[(4-methylpiperazin-1-yl)sulfonyl]phenyl}amino)pyrimidin-4-yl]amino}benzenesulfonamide]: 650 nM; `COc1cc(Nc2nc(Nc3ccc(OCCN4CCCC4)cc3)ncc2C#N)c(Cl)cc1Cl` [drawing 298, 4-(2,4-Dichloro-5-methoxy-phenylamino)-2-[4-(2-pyrrolidin-1-yl-ethoxy)-phenylamino]-pyrimidine-5-carbonitrile]: 6240 nM.
